For the experiment, the system named is metastatic melanoma. Put plainly: Clinical course of patient ZH311 after NY-ESO-1 vaccination and Ipilimumab. The format is in vivo. From the text:
A patient ZH311 was diagnosed in 2001 with metastatic melanoma. The tumor expressed NY-ESO-1 and was serum-positive for NY-ESO-1.
Survival time after treatment with Ipilimumab was 3 years.

In the case of “Ipilimumab: anti-CTLA4 antagonistic antibody”, the “survival time after treatment with Ipilimumab” value (patient ZH311) worked out at 3 years. Moreover, the course of disease entry (patient ZH311, Ipilimumab starting in 2007 after NY-ESO-1 vaccination) was “stabilized course of disease”. The substance also yielded an overall survival time (patient ZH311, since diagnosis 2001, NY-ESO-1 vaccination then Ipilimumab, peer group median 10 months) of 10 years.

Source of the values: patent US20180353603A1, “Combination therapy including tumor associated antigen binding antibodies” (CT Atlantic Ltd., priority 2011, published 2018).
